Data from patent publication US10246425B2, “3,5-diamino-6-chloro-N-(N-(4-phenylbutyl)carbamimidoyl) pyrazine-2-carboxamide compounds” (Parion Sciences, Inc., priority 2012, dated 2019).

Columns and labels:
sheep = assay: Mucociliary clearance (MCC) studies in sheep; type: in vivo
Source text: Assay 2. Mucociliary Clearance (MCC) Studies in Sheep

[1] = Plasma potassium in sheep of the MCC study (marker for hyperkalemia)
Protocol: The animal model that has been used most often to measure changes in MCC is the sheep model. The effect of compounds for enhancing mucociliary clearance (MCC) can be measured using an in vivo model described by Sabater et al., Journal of Applied Physiology, 1999, pp. 2191-2196, incorporated herein by reference. In these studies, adult sheep were restrained and nasally intubated with an endotracheal tube. Aerosolized test articles were administered over 10-15 minutes to sheep. Radiolabeled ^99mTc-sulfur colloid (TSC, 3.1 mg/mL; containing approximately 20 mCi) was then administered at a specified time four or eight hours after test article. The radiolabeled aerosol was administered through the endotracheal tube for about 5 minutes. The sheep were then extubated, and total radioactive counts in the lung were measured every 5 minutes for a 1-hour observation period. The rate of radiolabel clearance from the lung is representative of the MCC rate in the animal. The advantage of this system is that it closely simulates the human lung environment. The model also allows for the collection of simultaneous PK/PD information through plasma and urine sampling over the test period. There are also several techniques to measure the drug concentrations on the airway surface during the MCC measurements. These include the collection of exhaled breath condensates or a filter paper method to obtain ASL via bronchoscopy.
The ovine model described above was used to evaluate the in vivo effects (efficacy/durability) of aerosol-delivered Compound II-d on MCC. Treatments consisting of either 4 mL of Compound II-d, Comparative Example 1, (S)-3,5-diamino-6-chloro-N—(N-(4-(4-(2,3-diamino-3-oxopropoxy)phenyl)butyl)carbamimidoyl)pyrazine-2-carboxamide, vehicle (sterile distilled H2O), or test agent in combination with HS were tested. To determine if combining HS with Compound II-d MCC, HS was administered immediately following Compound II-d administration. […] Radioactive counts were measured in a central region in the right lung at 5 min intervals for one hour with a gamma camera. […]

[2] = test system: human bronchial epithelial (HBE) cells; assay: Airway surface liquid drug (ASL) clearance and metabolism by human airway epithelium; type: in vitro ADME; conditions: for % of Apical Mass as Metabolites (2 h) / % of Initial Apical Mass on Basolateral Side (2 h) / % on Basolateral Side as Metabolites (2 h): 25 μL of 25 μM apical
Protocol: Assay 3. Airway Surface Liquid Drug (ASL) Clearance and Metabolism by Human Airway Epithelium
(§1) The disappearance of Compound II-d from the apical surface and airway epithelial metabolism were assessed in human bronchial epithelial (HBE) cells (Table 3). In these experiments 25 μL of a 25 μM solution of ENaC blocker was added to the apical surface of HBE cells grown at an air/liquid interface, and the drug concentration in the apical and basolateral compartment was measured over 2 h by UPLC.
as §1, with “Therefore, the compounds of Formula (A) have a longer half-life on mucosal surfaces compared to these know compounds as evidenced by the data shown in Table 4. The” for “The”, “HBE and compared to Comparative Example 1” for “human bronchial epithelial (HBE) cells”, “4).” for “3).”

Primary CBE cells = assay: Airway hydration and sodium channel block (in vitro model): surface liquid retention; type: cell-based, canine; conditions: for surface liquid retained on apical surface (% initial volume): 50 μl buffer, 10 μM
Protocol: Assay 4. Airway Hydration and Sodium Channel Block (In Vitro Model)
Primary CBE cells are plated onto collagen-coated, porous membranes maintained at an air-liquid interface to assess maintenance of surface liquid volume over time. At the start of the experiment, each 12 mm snapwell insert was removed from the plate containing air-liquid interface culture media, blotted dry, weighed, and 50 μL of vehicle (0.1% DMSO), or ENaC blocker (10 μM in 0.1% DMSO) applied to the apical surface and the mass was recorded. The inserts were immediately returned to a transwell plate (500 μL, Krebs Ringer Bicarbonate (KRB), pH 7.4 in lower chamber) and placed in a 37° C., 5% CO2 incubator. To reduce artifact due to an apical carbohydrate osmotic gradient upon water loss, glucose was not included in the apical buffer. Compound (1a) was tested and compared to vehicle, and the mass of ASL was monitored serially from 0-8 or 24 h. The mass of surface liquid was converted to volume in μL. Data are reported as % initial volume (100%=50 μL).
The duration of sodium transport inhibition was determined indirectly by measuring the buffer retained after a 50 μl volume of experimental buffer was added to the apical surface of CBE cells.

[3] = Table 5: sheep MCC 4 h post-dose, 24 nmol/kg (300 μM)
[4] = Table 5: sheep MCC 4 h post-dose, 240 nmol/kg (3 mM)
[5] = Table 4: HBE cells, 2 h, mean ± SD
[6] = Table 4: HBE cells, 2 h, parent only
[7] = Table 5: sheep MCC 4 h post-dose, 0.024 nmol/kg (300 nM)
[8] = sheep MCC 4 h post-dose, 0.024 nmol/kg (300 nM) aerosol, mean ± SD (n)
[9] = sheep MCC 4 h post-dose, 0.24 nmol/kg (3 μM) aerosol, mean ± SD (n)
[10] = HBE cells, 2 h incubation on the apical surface (37° C.), UPLC

In the case of `N=C(NCCCCc1ccc(OC[C@H](N)C(N)=O)cc1)NC(=O)c1nc(Cl)c(N)nc1N` [Comparative Example 1, (S)-3,5-diamino-6-chloro-N—(N-(4-(4-(2,3-diamino-3-oxopropoxy)phenyl)butyl)carbamimidoyl)pyrazine-2-carboxamide, reference compound], the ED50 (sheep; Ovis aries, sheep MCC 4 h post-dose, slope, AUC and Maximum Clearance, read-out: ED50 in the sheep MCC model) is reported as ~0.24 µmol/kg, the “AUC (% CI × h)” value (sheep; [3]) is reported as 6.9 ± 1.0 (3) % CI × h and the “Initial Slope (4.0-4.5 h)” value (sheep; [3]) is reported as 14.5 ± 1.3 (3). The “AUC (% CI × h)” value (sheep; [4]) was 14.1 ± 2.2 (6) % CI × h, the “Initial Slope (4.0-4.5 h)” value (sheep; [4]) was 32.2 ± 7.3 (6) and the “MCC Highest Submaximal Dose” value (sheep; sheep) was 3 mM. For the same compound, the “ED50 in the sheep MCC model (concentration of dosing solution)” value (sheep; sheep MCC 4 h post-dose) was ~3000 µM, the “Top Dose in Sheep with no Elevation of Plasma Potassium” value [1] was 300 µM and the “elimination from the apical side” value ([2]; HBE cells, 2 h) was “most of Comparative Example 1 was eliminated from the apical side”. The “metabolized to the less active carboxylic acid” value ([2]; HBE cells, 2 h, apical side) was 83%, the “% of Apical Mass as Metabolites (2 h)” value [2, 5] was 83.0 ± 3.5% and the “% of Initial Apical Mass on Basolateral Side (2 h)” value [2, 5] was 8.3 ± 0.2^ %. The “% on Basolateral Side as Metabolites (2 h)” value (“% on Basolateral Side” for short) [2, 5] was 94.7 ± 1.0%, the “% of Initial Apical Mass on Basolateral Side as Parent (2 h)” value [2, 6] was “(1% Parent)” and the “% of Initial Drug Mass on Apical Side as Parent (2 h)” value [2, 6] was “(8% Parent)”.

With `N=C(NCCCCc1ccc(CC[C@H](NCCCN(C[C@H](O)[C@@H](O)[C@H](O)[C@H](O)CO)C[C@H](O)[C@@H](O)[C@H](O)[C@H](O)CO)C(N)=O)cc1)NC(=O)c1nc(Cl)c(N)nc1N` [II-d, 3,5-diamino-N—(N-(4-(4-((S)-4-amino-3-(3-(bis((2S,3R,4R,5R)-2,3,4,5,6-pentahydroxyhexyl)amino)propylamino)-4-oxobutyl)phenyl)butyl)carbamimidoyl)-6-chloropyrazine-2-carboxamide] the “AUC (% CI × h)” value (sheep; [7]) was 11.5 ± 0.9 (4) % CI × h, the “Initial Slope (4.0-4.5 h)” value (sheep; [7]) was 26.5 ± 1.4 (4) and the “MCC Highest Submaximal Dose” value (sheep; sheep) was 0.0003 mM. For the same compound, the “potency in sheep MCC relative to Comparative Example 1 (fold lower dose / times more potent)” value (sheep; sheep MCC 4 hours post-dose) was 10,000, the “AUC (% CI - h)” value (sheep; [8]) was 11.5 ± 0.9 (4) % CI - h and the “Initial Slope (4.0-4.5 h)” value (sheep; [8]) was 26.5 ± 1.4 (4). For the same compound, the “AUC (% CI - h)” value (sheep; [9]) was 19.8 ± 1.4 (4) % CI - h, the “Initial Slope (4.0-4.5 h)” value (sheep; [9]) was 41.9 ± 3.7 (4) and the ED50 dose (sheep; sheep MCC four hour post-dosing) was “approximately 0.024 nmo/kg”. For the same compound, the “percentage mucus clearance over time (FIG. 6)” value (sheep; sheep MCC, clinically relevant dose range) was “maximal effect”, the “MCC effect at the top of the dose response curve” value (sheep; sheep, 0.24 nmol/kg dose) was “maximum (100%) MCC effect” and the “effect on MCC compared to vehicle control” value (sheep; sheep, four hour post-dosing, all doses tested (0.024, 0.24 and 2.4 nmol/kg)) was “enhanced MCC compared to vehicle control”. The “Therapeutic Index, times greater renal safety than Comparative Example 1” value [1] was 10,000-100,000, the “Top Dose in Sheep with no Elevation of Plasma Potassium” value [1] was 300 µM and the “surface liquid retained on apical surface (% initial volume)” value (Primary CBE cells; 8 hours) was 112±11%. For the same compound, the “surface liquid retained on apical surface (% initial volume)” value (Primary CBE cells; 24 hours) was 70.6±8.0%, the “loss of surface liquid relative to the 8-hour measure” value (Primary CBE cells; 24 hours) was 16% and the “compound detectable on the basolateral side” value [2, 10] was “no Compound II-d was detectable on the basolateral side”. For the same compound, the “metabolites on the apical or basolateral sides” value [2, 10] was “no metabolites were detected”, the “% of Apical Mass as Metabolites (2 h)” value ([2]; Table 3: HBE cells, 2 h) was “None” and the “% on Basolateral Side” value ([2]; Table 3: HBE cells, 2 h) was “None”. The “% of Initial Apical Mass on Basolateral Side (2 h)” value ([2]; Table 3: HBE cells, 2 h, mean ± SD) was 1.6 ± 0.15%, the “% of Apical Mass as Metabolites (2 h)” value [2, 5] was “None” and the “% of Initial Apical Mass on Basolateral Side (2 h)” value [2, 5] was 1.6 ± 0.15%. The “% on Basolateral Side” value [2, 5] was “None”.
